Data as given in the Kinase Knowledgebase extract (Sharma et al. 2016).

What follows are molecules tested against EGFR (human) (UniProt P00533) (assay: not given).
Chain of EGFR (human) (P00533 whole entry, looked up): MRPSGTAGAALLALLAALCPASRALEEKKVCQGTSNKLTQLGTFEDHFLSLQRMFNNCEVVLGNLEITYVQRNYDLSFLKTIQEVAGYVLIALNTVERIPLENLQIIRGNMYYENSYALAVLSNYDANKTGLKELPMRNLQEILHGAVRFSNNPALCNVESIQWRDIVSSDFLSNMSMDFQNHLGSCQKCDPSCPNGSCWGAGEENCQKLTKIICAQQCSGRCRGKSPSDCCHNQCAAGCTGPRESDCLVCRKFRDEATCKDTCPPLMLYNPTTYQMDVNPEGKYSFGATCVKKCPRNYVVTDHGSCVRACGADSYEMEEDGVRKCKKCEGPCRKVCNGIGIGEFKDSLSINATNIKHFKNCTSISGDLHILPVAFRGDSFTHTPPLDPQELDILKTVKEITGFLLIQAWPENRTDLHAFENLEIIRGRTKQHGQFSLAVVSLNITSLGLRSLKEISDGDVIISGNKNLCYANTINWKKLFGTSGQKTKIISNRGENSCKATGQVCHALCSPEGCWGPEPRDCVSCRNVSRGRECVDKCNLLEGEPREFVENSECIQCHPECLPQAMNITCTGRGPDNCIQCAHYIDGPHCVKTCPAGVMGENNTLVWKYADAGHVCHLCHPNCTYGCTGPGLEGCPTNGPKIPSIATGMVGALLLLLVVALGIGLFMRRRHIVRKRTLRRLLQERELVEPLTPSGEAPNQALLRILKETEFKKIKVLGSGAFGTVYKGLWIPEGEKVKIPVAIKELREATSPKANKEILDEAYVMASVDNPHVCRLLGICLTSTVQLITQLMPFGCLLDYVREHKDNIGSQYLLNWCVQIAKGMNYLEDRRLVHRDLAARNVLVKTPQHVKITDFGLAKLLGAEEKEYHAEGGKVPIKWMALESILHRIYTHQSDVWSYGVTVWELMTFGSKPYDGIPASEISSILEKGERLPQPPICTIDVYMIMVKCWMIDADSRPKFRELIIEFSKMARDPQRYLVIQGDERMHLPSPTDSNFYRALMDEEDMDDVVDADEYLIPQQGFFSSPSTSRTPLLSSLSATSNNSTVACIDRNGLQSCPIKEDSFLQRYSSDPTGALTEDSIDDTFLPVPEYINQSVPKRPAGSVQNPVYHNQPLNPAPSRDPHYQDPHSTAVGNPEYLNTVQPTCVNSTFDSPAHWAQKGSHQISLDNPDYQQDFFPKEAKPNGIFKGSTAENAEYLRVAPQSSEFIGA
For `C#Cc1cccc(Nc2ncnc3cc(OCCCCCCC(=O)NO)c(OCCOC)cc23)c1`, the IC50 was no more than 100 nM. For `O=C(CCCCCNCc1ccc(-c2ccc3ncnc(Nc4ccc(OCc5cccc(F)c5)c(Cl)c4)c3c2)o1)NO`, the IC50 was no more than 100 nM. In the case of `C#Cc1cccc(Nc2ncnc3cc(OC)c(OCCC(=O)NO)cc23)c1`, the IC50 is reported as no more than 100 nM. `COc1cc2ncnc(Nc3ccc(F)c(Cl)c3)c2cc1OCCOc1ccc(C(=O)NO)cc1` was tested, and the IC50 was no more than 100 nM. `O=C(CCCCCOc1ccc2ncnc(Nc3ccc(F)c(Cl)c3)c2c1)NO` gave an IC50 of no more than 100 nM. `C[C@@H](Nc1ncnc2[nH]c(-c3ccc(NC(=O)CCNCCCCCC(=O)NO)cc3)cc12)c1ccccc1` showed an IC50 of no more than 100 nM. For `COCCOc1cc2ncnc(Nc3ccc(F)c(Cl)c3)c2cc1OCCCCCCC(=O)NO`, the IC50 was no more than 100 nM. For `C#Cc1cccc(Nc2ncnc3cc(OC)c(OCCCCCC(=O)NO)cc23)c1`, the IC50 was no more than 100 nM. In the case of `COc1cc2ncnc(Nc3ccc(F)c(Cl)c3)c2cc1NC(=O)CCCCCCC(=O)NO`, the IC50 is reported as no more than 100 nM. For `C[C@@H](Nc1ncnc2[nH]c(-c3ccc(NC(=O)CCNCCCCCCC(=O)NO)cc3)cc12)c1ccccc1`, the IC50 was no more than 100 nM. Work on `COc1cc2ncnc(Nc3ccc(F)c(Cl)c3)c2cc1OCCCCCC(=O)NO` yielded an IC50 of no more than 100 nM. Molecule `C#Cc1cccc(Nc2ncnc3cc(OC)c(OCCCC(=O)NO)cc23)c1` has an IC50 of no more than 100 nM. In the case of `C#Cc1cccc(Nc2ncnc3ccc(OCCCCC(=O)NO)cc23)c1`, the IC50 is reported as no more than 100 nM. With `COc1cc2ncnc(Nc3ccc(F)c(Cl)c3)c2cc1NC(=O)CCCC(=O)NO` the IC50 was no more than 100 nM. `O=C(CCCCCCOc1ccc2ncnc(Nc3ccc(F)c(Cl)c3)c2c1)NO` showed an IC50 of no more than 100 nM. Work on `COc1cc2ncnc(Nc3ccc(F)c(Cl)c3)c2cc1SCCCCC(=O)NO` yielded an IC50 of no more than 100 nM. In the case of `COc1cc2ncnc(Nc3ccc(F)c(Cl)c3)c2cc1OCC(=O)NO`, the IC50 is reported as no more than 100 nM. Work on `O=C(CCOc1ccc2ncnc(Nc3ccc(F)c(Cl)c3)c2c1)NO` yielded an IC50 of no more than 100 nM. In the case of `COc1cc2ncnc(Nc3ccc(F)c(Cl)c3)c2cc1OCCCCC(=O)NO`, the IC50 is reported as no more than 100 nM. Molecule `C#Cc1cccc(Nc2ncnc3cc(OC)c(NC(=O)CCCCCCC(=O)NO)cc23)c1` has an IC50 of no more than 100 nM. With `COc1cc2ncnc(Nc3ccc(F)c(Cl)c3)c2cc1OCCC(=O)NO` the IC50 was no more than 100 nM. `C#Cc1cc(Nc2ncnc3cc(OC)c(OCCCCCCC(=O)NO)cc23)ccc1O` gave an IC50 of no more than 100 nM. `O=C(CCCCCCOc1ccc2ncnc(Nc3ccc(OCc4cccc(F)c4)c(Cl)c3)c2c1)NO` gave an IC50 of no more than 100 nM. `O=C(CCCCOc1ccc2ncnc(Nc3ccc(F)c(Cl)c3)c2c1)NO` was tested, and the IC50 was no more than 100 nM. `COCCOc1cc2c(Nc3ccc(F)c(Cl)c3)ncnc2cc1OCCCCCCC(=O)NO` showed an IC50 of no more than 100 nM. With `COc1cc2ncnc(Nc3ccc(F)c(Cl)c3)c2cc1CCCCCC(=O)NO` the IC50 was no more than 100 nM. With `O=C(COc1ccc2ncnc(Nc3ccc(F)c(Cl)c3)c2c1)NO` the IC50 was no more than 100 nM. Molecule `C#Cc1cccc(Nc2ncnc3cc(OCCOC)c(OCCCCCCC(=O)NO)cc23)c1` has an IC50 of no more than 100 nM. Molecule `COCCOc1cc2ncnc(Nc3ccc(F)c(Cl)c3)c2cc1NC(=O)CCCCC(=O)NO` has an IC50 of no more than 100 nM. `COCCOc1cc2ncnc(Nc3ccc(F)c(Cl)c3)c2cc1NC(=O)CCCC(=O)NO` gave an IC50 of no more than 100 nM. In the case of `C#Cc1cccc(Nc2ncnc3cc(OCCCCCCC(=O)NO)c(OC)cc23)c1`, the IC50 is reported as no more than 100 nM. Work on `C#Cc1cccc(Nc2ncnc3ccc(OCC(=O)NO)cc23)c1` yielded an IC50 of no more than 100 nM. `COc1cc2ncnc(Nc3ccc(OCc4cccc(F)c4)c(Cl)c3)c2cc1OCCCCCCC(=O)NO` showed an IC50 of no more than 100 nM. Molecule `COCCOc1cc2ncnc(Nc3ccc(F)c(Cl)c3)c2cc1NC(=O)CCCCCCC(=O)NO` has an IC50 of no more than 100 nM. `COc1cc2ncnc(Nc3ccc(F)c(Cl)c3)c2cc1OCCCC(=O)NO` was tested, and the IC50 was no more than 100 nM. `C#Cc1cccc(Nc2ncnc3cc(OC)c(NC(=O)CCCCC(=O)NO)cc23)c1` was tested, and the IC50 was no more than 100 nM. In the case of `C#Cc1cccc(Nc2ncnc3cc(OC)c(NC(=O)CCCC(=O)NO)cc23)c1`, the IC50 is reported as no more than 100 nM. With `C#Cc1cccc(Nc2ncnc3cc(OC)c(OCC(=O)NO)cc23)c1` the IC50 was no more than 100 nM. With `COc1cc2ncnc(Nc3ccc(F)c(Cl)c3)c2cc1SCCCCCCC(=O)NO` the IC50 was no more than 100 nM.

Each molecule was assayed against CDK2 (human) (UniProt P24941) (assay: Enzyme Assay).
Molecule `CC(C)(C)c1cnc(CSc2cnc(NC(=O)CCCCC(=O)NO)s2)o1` has an IC50 of no more than 100 nM. `CC(C)(C)c1cnc(CSc2cnc(NC(=O)CCCCCC(=O)NO)s2)o1` showed an IC50 of no more than 100 nM. Work on `CC(C)(C)c1cnc(CSc2cnc(NC(=O)CCCCCCC(=O)NO)s2)o1` yielded an IC50 of no more than 100 nM. `CC(C)(C)c1cnc(CSc2cnc(NC(=O)CCCC(=O)NO)s2)o1` gave an IC50 of no more than 100 nM. For `CC(C)(C)c1cnc(CSc2cnc(NC(=O)Cc3ccc(OCCCCC(=O)NO)cc3)s2)o1`, the IC50 was no more than 100 nM. With `CC(C)(C)c1cnc(CSc2cnc(NC(=O)Cc3ccc(OCCCC(=O)NO)cc3)s2)o1` the IC50 was no more than 100 nM.
